Data reported in patent US20260137687A1, “GTPase INHIBITORS AND USES THEREOF” (The Regents of The University of California, priority 2022, published 2026).

What was measured:
K-Ras G12D = K-Ras G12D (Homo sapiens, UniProt P01116, G12D); assay: Intact protein mass spectrometry, covalent modification; type: binding; details: extended incubation at pH 7.5; 50 μM, 16 h
Procedure: (§1) Purified K-Ras variants (4 μM final) were incubated with compounds at 50 or 100 μM (1% v/v DMSO final) in 20 mM HEPES pH 7.5, 150 mM NaCl, 1 mM MgCl2 in a total volume of 150 μL. After the noted time, the samples were analyzed by intact protein LC/MS using a Waters Xevo G2-XS system equipped with an Acquity UPLC BEH C4 1.7 μm column. The mobile phase was a linear gradient of 5-95% acetonitrile/water+0.05% formic acid. The spectra were processed using QuantLynx, giving the ion counts observed for the most abundant species. For assays conducted under an alternate pH, the HEPES buffer was replaced with one of the following buffers (maintaining 150 mM NaCl and 1 mM MgCl2): 20 mM MES pH 6 or 20 mM Tris pH 9.

K-Ras G12V = K-Ras G12V (Homo sapiens, UniProt P01116, G12V); assay: as above; type: binding; details: extended incubation at pH 7.5; 50 μM, 16 h
Procedure: as §1

K-Ras Q61L = K-Ras Q61L (Homo sapiens, UniProt P01116, Q61L); assay: as above; type: binding; details: extended incubation at pH 7.5; 50 μM, 16 h
Procedure: as §1

K-Ras Q61R = K-Ras Q61R (Homo sapiens, UniProt P01116, Q61R); assay: as above; type: binding; details: extended incubation at pH 7.5; 50 μM, 16 h
Procedure: as §1

K-Ras(G12R)·GppNHp = target: T1, K-Ras(G12R)·GppNHp (Homo sapiens, UniProt P01116, C118S/C51S/C80L/G12R); assay: as above; type: binding; details: after 72 h; 50 μM
T1 construct: human K-Ras G12R Cyslight (G12R/C51S/C80L/C118S, aa 1-169); 6xHis tag + TEV cleavage site (N, cleaved yes); made in house; host or cells: E. coli BL21(DE3)
Procedure: as §1

K-Ras(G12R)·GDP = target: T2, K-Ras(G12R)·GDP (Homo sapiens, UniProt P01116, G12R); assay: Differential scanning fluorimetry; type: binding
T2 construct: human K-Ras (G12R, aa 1-169); 6xHis tag + TEV cleavage site (N, cleaved yes); made in house; host or cells: E. coli BL21(DE3)
Procedure: The protein of interest was diluted with SEC Buffer [20 mM HEPES 7.5, 150 mM NaCl, 1 mM MgCl2] to 8 μM. This solution was dispensed into wells of a white 96-well PCR plate in triplicate (25 μL/well). Fluorescence was measured at 0.5° C. temperature intervals every 30 s from 25° C. to 95° C. on a Bio-Rad CFX96 qPCR system using the FRET setting. Each data set was normalized to the highest fluorescence and the normalized fluorescence reading was plotted against temperature in GraphPad Prism 8.0. Tm values were determined as the temperature(s) corresponding to the maximum(ma) of the first derivative of the curve.

[1] = test system: BaF3/G12R cells (±IL-3), TCC-Pan-2 cells, and A375 cells; assay: Cellular activity (phospho-ERK immunoblot, growth inhibition); type: cell-based; details: at concentrations below 100 μM
Procedure: When indicated, cells were treated with drugs at 40-60% confluency at a final DMSO concentration of 1%. At the end of treatment period, cells were placed on ice. Unless otherwise indicated, adherent cells were washed once with ice-cold PBS (1 mL), scraped with a spatula, and pelleted by centrifugation (500×g, 5 min). Suspension cells were pelleted by centrifugation (500×g, 5 min), washed with 1 mL ice-cold PBS, and pelleted again. Cells were lysed in RIPA buffer supplemented with protease and phosphatase inhibitors (cOmplete and phosSTOP, Roche) on ice for 10 min. Lysates were clarified by high-speed centrifugation (19,000×g, 10 min). Concentrations of lysates were determined with protein BCA assay (Thermo Fisher) and adjusted to 2 mg/mL with additional RIPA buffer (or Co-IP Lysis Buffer). Samples were mixed with 5×SDS Loading Dye and heated at 95° C. for 5 min.
Cells were seeded into 96-well white flat bottom plates (1,000 cells/well) (Corning) and incubated overnight. Cells were treated with the indicated compounds in a nine-point threefold dilution series (100 μL final volume) and incubated for 72 h. Cell viability was assessed using a commercial CellTiter-Glo (CTG) luminescence-based assay (Promega). […] Plates were placed on an orbital shaker for 30 min before recording luminescence using a Spark 20M (Tecan) plate reader.

K-Ras(G12R) = K-Ras(G12R) (Homo sapiens, UniProt P01116, G12R); assay: Sos- or EDTA-mediated nucleotide exchange assay; type: biochemical; parameters: human K-Ras (G12R, aa 1-169); 6xHis tag + TEV cleavage site (N, cleaved yes); made in house; host or cells: E. coli BL21(DE3); details: BODIPY-GDP exchanged for unlabeled GDP; compound-bound K-Ras(G12R)
Procedure: This assay was performed as previously reported (38-41) with slight modifications. BODIPY-GDP-loaded K-Ras proteins were prepared freshly as follows. To a 10 μM solution of K-Ras(G12R)·GDP or K-Ras(G12R)·GDP·3 in SEC Buffer (1 mL) was added sequentially BODIPY-GDP (5 mM, 40 μL, Thermo Fisher, final concentration 200 μM) and Na-EDTA pH 8.0 (0.5 M, 5 μL, final concentration 2.5 mM). The mixture was incubated at 23° C. for 1 h, and a solution of MgCl2 (1.0 M, 20 μL, […]) was added to the reaction mixture. The protein solution was run through a PD-10 column to remove the excess nucleotide following the manufacturer's protocol. Briefly, sample (˜1.0 mL) and excess buffer (1.5 mL) were loaded onto the column (equilibrated with NucEx Buffer), and desalted protein was eluted with NucEx Buffer (3.5 mL). Desalted protein was diluted 1:1 to a concentration of roughly 1.5 μM in NucEx Buffer. 12 μL of this solution (triplicate for each condition) was added to wells of a black 384-well low-volume assay plate (Corning 4514). […] The plate was immediately placed in a TECAN Spark 20M plate reader, and fluorescence for BODIPY (excitation 488 nm, emission 520 nm) was read every 30 s over 1 h. Fluorescence intensity was normalized to values at time 0 and plotted again time. […]

CC(=O)C(O)(O)C(=O)N1[C@@H]2CC[C@H]1CN(c1nc(OCC34CCCN3CCC4)nc3c(F)c(-c4cccc5cccc(Cl)c45)ncc13)C2 [compound 3, 1-((1R,5S)-3-(7-(8-chloronaphthalen-1-yl)-8-fluoro-2-((tetrahydro-1H-pyrrolizin-7a(5H)-yl)methoxy)pyrido[4,3-d]pyrimidin-4-yl)-3,8-diazabicyclo[3.2.1]octan-8-yl)-2,2-dihydroxybutane-1,3-dione]
covalent modification of K-Ras G12D (K-Ras G12D): did not modify | covalent modification of K-Ras G12V (K-Ras G12V): did not modify | covalent modification of K-Ras Q61L (K-Ras Q61L): did not modify | covalent modification of K-Ras Q61R (K-Ras Q61R): did not modify | modification of K-Ras(G12R)·GppNHp (K-Ras(G12R)·GppNHp): < 5% | increase of melting temperature of K-Ras(G12R)·GDP·3 adduct vs unmodified K-Ras(G12R)·GDP (K-Ras(G12R)·GDP): 9.1 °C | cellular activity [1]: did not show cellular activity | Sos-mediated nucleotide exchange (K-Ras(G12R)): inhibited | rate of EDTA-mediated nucleotide exchange (K-Ras(G12R)): significantly reduced
